By CL/F is commonly meant the apparent clearance, not corrected for the fraction that reaches the circulation. The term half-life denotes the time needed for the level to fall by half in the phase considered. As a reminder, the EC50 is the concentration that produces a half-maximal response. As a reminder, the bioavailability is the share of a dose that reaches the circulation, judged against a reference dose that is usually intravenous. By IC50 is commonly meant the concentration needed to halve the response being measured. A word on the Kp: it is the ratio of the level in a tissue or fluid to that in plasma or blood. Usually share remaining stands for what is left of the initial amount, in per cent. Broadly, the AUC(0-t) is exposure summed from dosing to a finite time, without extrapolation to infinity.

A short description of data set [1]: Clearance in rat at 10 mg/kg, po. The data set is classed as ADME, organism-based. To be noted: in vivo.
A further data set relates to Liver. The data set is described as follows: Drug uptake in rat at 10 mg/kg, po liver after 48 hrs. Format: ADME, organism-based. To be noted: in vivo, 48 h, BLD = below limit of detection.
Data set [2] is described as follows: Half life in human liver microsomes. Format: ADME. For orientation: Liver microsomes are vesicles of endoplasmic reticulum, rich in cytochrome P450 enzymes.
The test system of data set [3] is Hepatitis C virus. The data set is described as follows: Antiviral activity against HCV1a by replicon assay. The settings on record: subtype 1a. Format: functional, organism-based, Hepacivirus hominis.
The test system of data set [4] is Hepatitis C virus. The data set is described as follows: Antiviral activity against HCV1b by replicon assay. The settings on record: genotype 1b. Format: functional, organism-based, Hepacivirus hominis. (In general: A replicon is a self-replicating genome or part of one, used to study replication in cells.)
The nature of data set [5]: Oral bioavailability in rat at 10 mg/kg. Format: ADME, organism-based. To be noted: in vivo.
Data set [6] in a line: Half life in cynomolgus monkey liver microsomes. Format: ADME, Macaca fascicularis.
The target of data set [7] is Voltage-gated inwardly rectifying potassium channel KCNH2 (Homo sapiens, UniProt Q12809). The data set can be described thus: Inhibition of human ERG by FLIPR assay.
Voltage-gated inwardly rectifying potassium channel KCNH2, sequence (Q12809 whole entry): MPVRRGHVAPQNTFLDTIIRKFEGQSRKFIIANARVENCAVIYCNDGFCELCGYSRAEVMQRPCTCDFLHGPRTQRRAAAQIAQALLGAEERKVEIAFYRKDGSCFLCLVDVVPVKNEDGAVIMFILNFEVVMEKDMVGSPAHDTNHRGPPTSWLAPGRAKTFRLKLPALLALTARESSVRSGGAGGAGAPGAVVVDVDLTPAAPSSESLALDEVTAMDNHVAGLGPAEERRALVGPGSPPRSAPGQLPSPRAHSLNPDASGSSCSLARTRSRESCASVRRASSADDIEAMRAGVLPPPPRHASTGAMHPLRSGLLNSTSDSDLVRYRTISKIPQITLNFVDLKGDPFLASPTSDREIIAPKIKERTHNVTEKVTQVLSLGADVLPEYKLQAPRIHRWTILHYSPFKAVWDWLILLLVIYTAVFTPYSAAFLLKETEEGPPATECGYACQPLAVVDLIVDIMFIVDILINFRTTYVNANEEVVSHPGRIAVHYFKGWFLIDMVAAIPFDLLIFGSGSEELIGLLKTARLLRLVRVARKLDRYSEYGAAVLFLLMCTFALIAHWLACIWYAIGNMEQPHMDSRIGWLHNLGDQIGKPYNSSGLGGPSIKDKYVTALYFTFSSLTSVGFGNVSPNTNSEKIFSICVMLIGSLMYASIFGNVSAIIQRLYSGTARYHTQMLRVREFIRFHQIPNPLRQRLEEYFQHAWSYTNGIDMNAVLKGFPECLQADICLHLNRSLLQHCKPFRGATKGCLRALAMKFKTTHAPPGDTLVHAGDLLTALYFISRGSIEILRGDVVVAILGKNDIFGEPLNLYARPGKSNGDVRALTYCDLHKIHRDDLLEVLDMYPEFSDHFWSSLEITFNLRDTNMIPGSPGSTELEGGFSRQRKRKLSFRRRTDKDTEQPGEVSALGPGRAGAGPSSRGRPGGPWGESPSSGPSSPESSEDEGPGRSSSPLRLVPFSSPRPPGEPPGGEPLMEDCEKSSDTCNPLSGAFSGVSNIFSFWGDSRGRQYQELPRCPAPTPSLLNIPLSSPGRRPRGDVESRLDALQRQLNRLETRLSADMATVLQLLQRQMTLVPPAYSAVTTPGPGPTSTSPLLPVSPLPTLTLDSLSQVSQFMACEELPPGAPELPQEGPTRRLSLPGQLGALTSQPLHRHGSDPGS
The nature of data set [8]: Ratio of drug level in liver to plasma in rat at 10 mg/kg, po after 48 hrs. Format: ADME, organism-based.
Data set [9] relates to Hepatitis C virus. The data set can be described thus: Antiviral activity against HCV1b by replicon assay in presence of 40% human serum. The data set is classed as functional, organism-based, Hepacivirus hominis. To be noted: genotype 1b.
The next data set is described as follows: in vitro. The settings on record: rat, liver microsomes.
The nature of data set [10]: Ratio of drug level in liver to plasma in rat at 10 mg/kg, po after 6 hrs. The data set is classed as ADME, organism-based.
The nature of data set [11]: Ratio of drug level in liver to plasma in rat at 10 mg/kg, po after 24 hrs. Format: ADME, organism-based.
Data set [12] is described as follows: Ratio of drug level in liver to plasma in rat at 10 mg/kg, po after 4 hrs. Format: ADME, organism-based.
A short description of data set [13]: AUC (0 to 24 hrs) in rat at 5 mg/kg, iv. Format: ADME, organism-based. Also on record: dose 5 mg/kg, time < 24 hr, route intravenous. To be noted: in vivo.
The nature of data set [14]: AUC (0 to 24 hrs) in cynomolgus monkey at 1 mg/kg, iv. Format: ADME, organism-based, Macaca fascicularis. On the set-up: time < 24 hr, dose 1 mg/kg, route intravenous. To be noted: in vivo.
A short description of data set [15]: Oral bioavailability in dog at 3 mg/kg. To be noted: in vivo. Format: ADME, organism-based, Canis lupus familiaris.
Data set [16] is described as follows: Oral bioavailability in cynomolgus monkey at 3 mg/kg. The data set is classed as ADME, organism-based, Macaca fascicularis. To be noted: in vivo.
A short description of data set [17]: AUC (0 to 24 hrs) in cynomolgus monkey at 3 mg/kg, po. The data set is classed as ADME, organism-based, Macaca fascicularis. On the set-up: dose 3 mg/kg, time < 24 hr, route oral. The settings on record: in vivo.
Data set [18] can be described thus: Solubility in mid-range pH solutions. Format: physicochemical.
The nature of data set [19]: AUC (0 to 24 hrs) in rat at 10 mg/kg, po. On the set-up: time < 24 hr, dose 10 mg/kg, route oral. To be noted: in vivo. Format: ADME, organism-based.
Data set [20] is described as follows: AUC (0 to 24 hrs) in dog at 1 mg/kg, iv. The data set is classed as ADME, organism-based, Canis lupus familiaris. Also on record: dose 1 mg/kg, time < 24 hr, route intravenous. To be noted: in vivo.
Data set [21] in a line: AUC (0 to 24 hrs) in dog at 3 mg/kg, po. Format: ADME, organism-based, Canis lupus familiaris. Also on record: time < 24 hr, dose 3 mg/kg, route oral. To be noted: in vivo.

Each structure is given as a SMILES string.

Description for in vitro: Metabolic stability in rat liver microsomes assessed as compound remaining after 10 mins

Turning to `COc1ccc2c(c1)C1CC1(C(=O)N1C3CCC1CN(C)C3)Cn1c-2c(C2CCCCC2)c2ccc(C(=O)NS(=O)(=O)CC3CCC3)cc21` (racemic), the apparent clearance CL/F in data set [1] was determined as 13.3 mL/min/kg. Further, in the data set on Liver, the Drug uptake entry is on record as “BLD”. For the same compound, the figures for the half-life in [2] and in data set [6] were 45 min and 9 min, respectively. The 50% effective concentration (EC50) was 15 nM with Hepatitis C virus [3] and 56 nM in the data set on Hepatitis C virus [4]. The bioavailability in data set [5] came to 19.1%.
With `COc1ccc2c(c1)[C@@H]1C[C@]1(C(=O)N1C3CCC1CN(C)C3)Cn1c-2c(C2CCCCC2)c2ccc(C(=O)NS(=O)(=O)CC(C)C)cc21`, the IC50 in data set [7] came out at 16600 nM. Besides, the half-life in data set [2] is more than 72 min; in data set [6], 24.4 min. For the same compound, in [8], the Kp at 48 h is 4. Moreover, the EC50 amounted to 80 nM in the data set on Hepatitis C virus [9] and 2 nM in the data set on Hepatitis C virus [4]. The compound further had a bioavailability in data set [5] of 41%. The compound further returned a share remaining at 10 min in “in vitro” of 100%. The concentration ratio (Kp) at 6 h in [10] worked out at 47.
In data set [7], `COc1ccc2c(c1)[C@@H]1C[C@]1(C(=O)N1[C@@H]3CC[C@H]1CN(C)C3)Cn1c-2c(C2CCCCC2)c2ccc(C(=O)NS(=O)(=O)N(C)C)cc21` [BECLABUVIR] had a 50% inhibitory concentration (IC50) of 26000 nM. In data set [2], this compound gave a half-life of 45 min. The Kp at 24 h in [11] amounted to 10. For the same compound, the partition ratio (Kp) at 4 h in [12] came to 2. Also, in the data set on Hepatitis C virus [9], the EC50 was determined as 40 nM. Further, in data set [5], the bioavailability is 43%. This compound also returned an amount remaining at 10 min in the data set “in vitro” of 100%. Besides, in [10], the partition ratio (Kp) at 6 h came out at 10.
Regarding `COc1ccc2c(c1)[C@@H]1C[C@]1(C(=O)N1C3CCC1CN(C)C3)Cn1c-2c(C2CCCCC2)c2ccc(C(=O)NS(=O)(=O)C(C)C)cc21`, the area under the curve AUC(0-t) at 24 h worked out at 18 µM·h in data set [13]; 7 µM·h in data set [14]; 5.4 µM·h in data set [17]; 16 µM·h in data set [19]; 36 µM·h in [20]; 124 µM·h in [21]. The bioavailability in data set [15] was 100%; in data set [16], 25%; in data set [5], 65%. Further, the solubility result in data set [18] is “soluble”. In addition, the Kp at 48 h in [8] was found to be 11. The EC50 in the data set on Hepatitis C virus [3] was found to be 7 nM; in the data set on Hepatitis C virus [9] it was 20 nM. In [10], the Kp at 6 h turned out to be 20.

Source of the values: ChEMBL document CHEMBL3758092, “Discovery and preclinical evaluation of potent, orally bioavailable, metabolically stable cyclopropylindolobenzazepine acylsulfonamides as thumb site 1 inhibitors of the hepatitis c virus NS5B RNA-dependent, RNA polymerase” (Bioorg Med Chem Lett, 2016).
